Patent US20040234501A1, “Hepatitis b virus proliferation inhibitor” (priority 2001, published 2004)

Tests used:
[1] = Liver function (GPT) in a patient with chronic hepatitis B; format: in vivo, human
Procedure: (§1) Confirmation of the effect of IFN administration to a patient with chronic hepatitis B:
(§2) Therefore, 3,000,000 units of IFN-α were administered for a total of 28 days.

hepatitis B virus = assay: Amount of hepatitis B virus in the blood (HBV-DNA) and emergence of resistant virus in a patient with chronic hepatitis B; format: in vivo, human; conditions: after termination of IFN-α; 3,000,000 units for a total of 28 days
Procedure: as §1, §2

Compound	GPT (liver function acutely worsened) ([1]; about 3 months after discontinuation of second lamivudine administration)	amount of hepatitis B virus in the blood (hepatitis B virus)	liver function ([1]; 3,000,000 units of IFN-α in combination with lamivudine, resistant virus present)	liver function ([1]; after termination of IFN-α, 3,000,000 units for a total of 28 days)
Nc1ccn([C@@H]2CS[C@H](CO)O2)c(=O)n1 [lamivudine, reference compound]	567	–	–	–
interferon-α [IFN-α]	–	again increased	further worsened	worsened
